Experimental findings from patent US8314092B2, “Substituted [(5H-pyrrolo[2,1-c][1,4]benzodiazepin-11-yl)piperazin-1-yl]-2,2-dimethylpropanoic acid compounds as dual activity H1 inverse agonists/5-HT2A antagonists” (Eli Lilly and Company, priority 2011, dated 2012) are described below.

Structures can show the parent of a compound that is named as a salt.

This experiment concerns the target T1, recombinant 5-HT2A receptor (human) (Homo sapiens, UniProt P28223).
T1 construct: expressed in transfected cells
Kind of experiment: 5-HT2A competition binding assay ([3H]-Ketanserin SPA). The procedure:
[^3H]-Ketanserin binding experiments are carried out in SPA 96-well format. Membranes used in this assay are prepared from AV-12 cells stably expressing recombinant 5-HT2A receptor (human). The incubation is initiated by the addition of a mixture of WGA YSi SPA beads (1 mg/well, Perkin Elmer (MA, USA), RPNQ0011) and 2 μg membranes to assay buffer (67 mM Tris, 0.5 mM EDTA; pH 7.6) containing 3.1 nM [^3H]-Ketanserin and varying concentrations of the test compound (10 point concentration response curves). Non-specific binding is determined in the presence of 20 μM 1-(1-Naphthyl)piperazine. Samples were incubated for four hours at room temperature (22° C.) and then read in a Microbeta Trilux.
Curves are evaluated using a 4-parameter logistic nonlinear equation to obtain the concentration of competitor causing 50% inhibition of radioligand binding (IC50). Equilibrium dissociation constants (Ki) are calculated according to the equation Ki=IC50/(1+L/Kd), where L equals the concentration of radioligand used in the experiment and Kd equals the equilibrium dissociation constant of the radioligand for the receptor, determined from standard saturation analysis or homologous competition experiments. Reported values for Ki, where n values are indicated, are shown as geometric mean±the standard error of the mean (SEM), with the number of replicate determinations indicated by n. […]

T1 sequence (P28223 whole entry): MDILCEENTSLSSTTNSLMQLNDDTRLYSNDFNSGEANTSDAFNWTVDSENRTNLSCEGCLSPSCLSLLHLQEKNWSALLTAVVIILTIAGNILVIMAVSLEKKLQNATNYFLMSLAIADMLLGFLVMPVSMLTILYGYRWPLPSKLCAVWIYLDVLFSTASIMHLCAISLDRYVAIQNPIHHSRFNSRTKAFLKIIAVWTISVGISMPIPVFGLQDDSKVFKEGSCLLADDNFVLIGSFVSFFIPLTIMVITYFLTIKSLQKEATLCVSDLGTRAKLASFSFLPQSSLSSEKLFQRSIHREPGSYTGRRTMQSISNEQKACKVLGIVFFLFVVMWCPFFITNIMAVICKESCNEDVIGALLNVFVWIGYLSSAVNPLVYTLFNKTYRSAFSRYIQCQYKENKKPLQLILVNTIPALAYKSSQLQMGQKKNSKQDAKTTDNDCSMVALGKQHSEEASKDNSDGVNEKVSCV

As a reminder, the Ki is the dissociation constant of the complex between target and ligand, obtained from inhibition or displacement. Regarding `Cc1cc2n(c1)Cc1cc(Cl)ccc1N=C2N1CCN(CC(C)(C)C(=O)O)CC1` [Example 13, 3-[4-(7-Chloro-2-methyl-5H-pyrrolo[2,1-c][1,4]benzodiazepin-11-yl)piperazin-1-yl]-2,2-dimethylpropanoic acid dihydrochloride], the Ki was 63.2 nM.
